Data from ChEMBL document CHEMBL5252585, “Structure optimization and discovery of novel compound for the treatment of insertion mutations within exon 20 of EGFR and HER2” (Bioorg Med Chem, 2023).
pIC50: −log10 of the molar value. Active and inactive are the calls of the source. No cut-off for these calls is given here.

Columns and labels:
[1] = biological target: T1, Ephrin type-A receptor 3 (Homo sapiens) (UniProt P29320); assay: Inhibition of EPHA3 (unknown origin) at 500 nM relative to control
T1 sequence (whole entry): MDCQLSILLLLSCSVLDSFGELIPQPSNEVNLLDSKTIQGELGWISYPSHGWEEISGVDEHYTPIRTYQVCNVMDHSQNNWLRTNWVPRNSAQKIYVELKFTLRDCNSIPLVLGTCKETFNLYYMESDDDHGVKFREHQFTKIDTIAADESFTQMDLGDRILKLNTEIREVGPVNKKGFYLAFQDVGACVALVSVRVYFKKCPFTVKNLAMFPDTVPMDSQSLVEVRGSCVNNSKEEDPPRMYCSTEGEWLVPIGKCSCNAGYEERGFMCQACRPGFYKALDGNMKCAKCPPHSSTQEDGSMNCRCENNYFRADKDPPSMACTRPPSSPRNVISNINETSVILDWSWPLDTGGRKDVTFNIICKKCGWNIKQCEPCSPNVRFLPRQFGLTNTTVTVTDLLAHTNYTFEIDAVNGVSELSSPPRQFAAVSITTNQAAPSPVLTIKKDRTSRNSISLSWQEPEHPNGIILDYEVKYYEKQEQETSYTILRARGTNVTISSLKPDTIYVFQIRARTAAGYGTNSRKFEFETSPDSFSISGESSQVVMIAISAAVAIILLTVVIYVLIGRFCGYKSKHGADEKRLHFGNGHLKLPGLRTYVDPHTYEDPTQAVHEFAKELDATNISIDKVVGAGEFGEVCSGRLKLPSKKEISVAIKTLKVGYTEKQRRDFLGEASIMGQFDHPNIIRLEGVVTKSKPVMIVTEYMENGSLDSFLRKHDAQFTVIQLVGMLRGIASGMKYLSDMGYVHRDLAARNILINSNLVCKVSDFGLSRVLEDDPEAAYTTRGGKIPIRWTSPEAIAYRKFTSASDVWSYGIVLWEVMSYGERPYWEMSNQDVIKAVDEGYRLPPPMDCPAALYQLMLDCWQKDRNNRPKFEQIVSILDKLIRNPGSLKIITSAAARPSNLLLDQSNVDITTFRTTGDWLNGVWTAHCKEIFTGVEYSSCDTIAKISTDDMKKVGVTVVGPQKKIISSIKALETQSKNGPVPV

[2] = biological target: Receptor tyrosine-protein kinase erbB-2 (Homo sapiens, UniProt P04626); assay: Inhibition of HER2 (unknown origin)
Receptor tyrosine-protein kinase erbB-2, sequence (P04626 whole entry): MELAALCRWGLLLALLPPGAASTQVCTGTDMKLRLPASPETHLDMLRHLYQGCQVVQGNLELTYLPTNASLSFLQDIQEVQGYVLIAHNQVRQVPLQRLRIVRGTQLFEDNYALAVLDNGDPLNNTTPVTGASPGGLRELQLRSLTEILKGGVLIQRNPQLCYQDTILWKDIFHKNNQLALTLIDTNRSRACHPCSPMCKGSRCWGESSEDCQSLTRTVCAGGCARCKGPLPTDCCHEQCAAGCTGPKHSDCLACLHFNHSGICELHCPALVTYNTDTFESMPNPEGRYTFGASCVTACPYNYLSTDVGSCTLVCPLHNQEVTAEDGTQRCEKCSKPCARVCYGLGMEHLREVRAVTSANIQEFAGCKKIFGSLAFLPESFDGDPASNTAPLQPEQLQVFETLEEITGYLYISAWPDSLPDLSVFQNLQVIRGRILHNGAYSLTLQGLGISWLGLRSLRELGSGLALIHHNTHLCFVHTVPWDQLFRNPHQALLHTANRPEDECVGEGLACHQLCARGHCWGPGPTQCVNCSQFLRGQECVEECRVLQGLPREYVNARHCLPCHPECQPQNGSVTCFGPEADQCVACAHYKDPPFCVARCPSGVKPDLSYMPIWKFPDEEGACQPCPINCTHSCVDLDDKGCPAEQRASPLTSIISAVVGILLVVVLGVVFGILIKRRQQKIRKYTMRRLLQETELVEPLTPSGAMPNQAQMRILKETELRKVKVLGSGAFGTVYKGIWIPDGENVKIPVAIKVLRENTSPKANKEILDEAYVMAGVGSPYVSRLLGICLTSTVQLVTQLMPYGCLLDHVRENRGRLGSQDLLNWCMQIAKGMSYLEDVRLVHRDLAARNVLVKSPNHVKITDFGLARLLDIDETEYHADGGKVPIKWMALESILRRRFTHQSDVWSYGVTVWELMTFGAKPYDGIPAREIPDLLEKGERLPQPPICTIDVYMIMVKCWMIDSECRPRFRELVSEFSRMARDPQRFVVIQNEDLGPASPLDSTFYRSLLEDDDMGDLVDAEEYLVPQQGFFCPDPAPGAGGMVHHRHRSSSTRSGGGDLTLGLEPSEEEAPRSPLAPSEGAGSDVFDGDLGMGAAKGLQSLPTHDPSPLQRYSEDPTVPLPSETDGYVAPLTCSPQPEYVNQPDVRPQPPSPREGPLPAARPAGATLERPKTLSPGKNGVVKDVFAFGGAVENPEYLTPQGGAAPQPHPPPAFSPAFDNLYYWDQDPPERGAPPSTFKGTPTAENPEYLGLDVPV

BaF3 [3] = assay: Inhibition of HER2-A775-G776 ins YVMA mutant in mouse BaF3 cells assessed as reduction in HER2 phosphorylation at less than 1 nM incubated for 24 hrs by Western blot analysis; assay type: cell-based
[4] = biological target: Protein-tyrosine kinase 6 (Homo sapiens) (UniProt Q13882); assay: Inhibition of BRK (unknown origin) at 500 nM relative to control
Protein-tyrosine kinase 6 (Homo sapiens), sequence (Q13882 whole entry, looked up): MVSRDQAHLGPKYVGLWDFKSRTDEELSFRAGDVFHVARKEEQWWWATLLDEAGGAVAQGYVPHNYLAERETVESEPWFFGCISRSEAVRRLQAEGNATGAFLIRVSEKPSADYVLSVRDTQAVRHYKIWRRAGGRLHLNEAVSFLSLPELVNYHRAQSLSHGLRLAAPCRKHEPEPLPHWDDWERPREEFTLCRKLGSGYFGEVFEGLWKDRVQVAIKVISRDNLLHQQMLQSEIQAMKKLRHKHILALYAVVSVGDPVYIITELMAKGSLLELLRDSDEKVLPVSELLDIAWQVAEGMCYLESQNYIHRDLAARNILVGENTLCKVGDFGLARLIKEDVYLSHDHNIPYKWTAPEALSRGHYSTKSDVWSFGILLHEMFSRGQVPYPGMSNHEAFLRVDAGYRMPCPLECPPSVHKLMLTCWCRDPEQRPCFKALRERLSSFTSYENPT

[5] = biological target: Tyrosine-protein kinase BTK (Homo sapiens) (UniProt Q06187); assay: Inhibition of BTK (unknown origin) at 500 nM relative to control
Tyrosine-protein kinase BTK (Homo sapiens), sequence (Q06187 whole entry): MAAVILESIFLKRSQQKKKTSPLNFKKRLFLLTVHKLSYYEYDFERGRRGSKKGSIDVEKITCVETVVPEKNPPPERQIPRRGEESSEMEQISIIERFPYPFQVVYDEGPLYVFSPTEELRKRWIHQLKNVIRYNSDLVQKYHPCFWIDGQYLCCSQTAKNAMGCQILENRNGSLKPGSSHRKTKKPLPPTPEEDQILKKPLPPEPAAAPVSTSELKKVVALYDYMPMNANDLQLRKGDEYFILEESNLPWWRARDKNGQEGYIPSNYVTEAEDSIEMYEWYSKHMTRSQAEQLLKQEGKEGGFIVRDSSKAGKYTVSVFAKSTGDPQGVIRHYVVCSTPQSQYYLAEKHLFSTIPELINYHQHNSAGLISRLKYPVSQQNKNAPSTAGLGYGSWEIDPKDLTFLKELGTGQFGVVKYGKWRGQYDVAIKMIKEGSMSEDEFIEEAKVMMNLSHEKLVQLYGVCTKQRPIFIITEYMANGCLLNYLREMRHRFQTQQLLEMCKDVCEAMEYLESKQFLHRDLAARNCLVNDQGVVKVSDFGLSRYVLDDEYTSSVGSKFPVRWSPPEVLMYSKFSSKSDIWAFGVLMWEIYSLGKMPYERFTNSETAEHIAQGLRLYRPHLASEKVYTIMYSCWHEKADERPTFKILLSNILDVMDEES

BaF3 [6] = assay: Inhibition of HER2-A775-G776 ins YVMA mutant in mouse BaF3 cells assessed as reduction in HER2 phosphorylation incubated for 24 hrs by Western blot analysis; assay type: cell-based; settings: dose 1-100 nM
[7] = Mean residence time in Sprague-Dawley rat at 10 mg/kg, iv measured upto 8 hrs by LC-MS/MS analysis; assay type: ADME, organism-based; settings: in vivo
[8] = Toxicity in BALB/c mouse harboring EGFR D770-N771 ins NPG mutant implanted with mouse BaF3 cells assessed as change in body weight at 10 to 20 mg/kg, po administered once daily for 13 to 14 days; assay type: organism-based; settings: in vivo, dose lower 10 mg/kg, time lower 13 day, dose upper 20 mg/kg, time upper 14 day
[9] = Inhibition of EGFR L858R/T790M double mutant (unknown origin); parameters: species or system Homo sapiens
[10] = Tmax in Sprague-Dawley rat at 10 mg/kg, iv measured upto 8 hrs by LC-MS/MS analysis; assay type: ADME, organism-based; settings: in vivo
BaF3 [11] = assay: Antiproliferative activity against mouse BAF3 cells harboring FL-EGFR D770-N771 ins NPG mutant after 72 hrs by celltiter-Glo luminescence assay; assay type: functional, cell-based; settings: BaF3, 72 h
BaF3 [12] = assay: Antitumor activity against mouse BaF3 cells implanted in BALB/c mouse harboring HER2-A775-G776 ins YVMA mutant assessed as tumor growth inhibition at 20 mg/kg, po administered once daily for 13 to 14 days; assay type: functional; settings: time 13-14 day, read-out: TGI
BaF3 [13] = assay: Inhibition of EGFR D770-N771 ins NPG mutant in mouse BaF3 cells assessed as reduction in EGFR phosphorylation incubated for 24 hrs by Western blot analysis; assay type: cell-based; settings: dose 1-100 nM
[14] = Half life in Sprague-Dawley rat at 10 mg/kg, iv measured upto 8 hrs by LC-MS/MS analysis; assay type: ADME, organism-based; settings: in vivo
[15] = AUC(0 to t) in Sprague-Dawley rat at 10 mg/kg, po measured upto 8 hrs by LC-MS/MS analysis; assay type: ADME, organism-based; parameters: dose 10 mg/kg, time < 8 hrs, route po; settings: in vivo
[16] = biological target: Tyrosine-protein kinase Blk (Homo sapiens) (UniProt P51451); assay: Inhibition of BLK (unknown origin) at 500 nM relative to control
Tyrosine-protein kinase Blk (Homo sapiens), sequence (P51451 2-505 limits assumed): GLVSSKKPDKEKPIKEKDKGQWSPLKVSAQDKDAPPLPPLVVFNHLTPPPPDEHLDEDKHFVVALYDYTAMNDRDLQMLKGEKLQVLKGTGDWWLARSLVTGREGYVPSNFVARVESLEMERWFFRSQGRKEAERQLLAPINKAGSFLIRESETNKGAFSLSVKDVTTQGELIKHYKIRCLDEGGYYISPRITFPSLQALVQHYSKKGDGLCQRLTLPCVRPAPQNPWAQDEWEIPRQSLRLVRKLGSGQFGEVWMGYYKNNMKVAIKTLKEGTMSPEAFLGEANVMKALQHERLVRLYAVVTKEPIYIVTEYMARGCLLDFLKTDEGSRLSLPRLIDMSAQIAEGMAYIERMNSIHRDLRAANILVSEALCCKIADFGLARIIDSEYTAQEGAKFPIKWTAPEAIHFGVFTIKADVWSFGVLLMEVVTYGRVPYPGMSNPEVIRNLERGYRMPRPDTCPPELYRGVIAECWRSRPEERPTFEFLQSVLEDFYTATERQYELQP

BaF3 [17] = assay: Antiproliferative activity against mouse BAF3 cells harboring FL-EGFR A763-Y764 ins FQEA mutant after 72 hrs by celltiter-Glo luminescence assay; assay type: functional, cell-based; settings: BaF3, 72 h
BaF3 [18] = assay: In vivo inhibition of HER2-A775-G776 ins YVMA mutant in BALB/c mouse implanted with mouse BaF3 cells assessed as reduction in HER2 phosphorylation at 10 to 20 mg/kg, po administered once daily for 13 to 14 days by Western blot analysis; assay type: functional, organism-based; settings: dose 10-20 mg/kg, time 13-14 day
[19] = biological target: Voltage-gated inwardly rectifying potassium channel KCNH2 (Homo sapiens, UniProt Q12809); assay: Binding affinity to human ERG; assay type: toxicity
Voltage-gated inwardly rectifying potassium channel KCNH2, sequence (Q12809 whole entry): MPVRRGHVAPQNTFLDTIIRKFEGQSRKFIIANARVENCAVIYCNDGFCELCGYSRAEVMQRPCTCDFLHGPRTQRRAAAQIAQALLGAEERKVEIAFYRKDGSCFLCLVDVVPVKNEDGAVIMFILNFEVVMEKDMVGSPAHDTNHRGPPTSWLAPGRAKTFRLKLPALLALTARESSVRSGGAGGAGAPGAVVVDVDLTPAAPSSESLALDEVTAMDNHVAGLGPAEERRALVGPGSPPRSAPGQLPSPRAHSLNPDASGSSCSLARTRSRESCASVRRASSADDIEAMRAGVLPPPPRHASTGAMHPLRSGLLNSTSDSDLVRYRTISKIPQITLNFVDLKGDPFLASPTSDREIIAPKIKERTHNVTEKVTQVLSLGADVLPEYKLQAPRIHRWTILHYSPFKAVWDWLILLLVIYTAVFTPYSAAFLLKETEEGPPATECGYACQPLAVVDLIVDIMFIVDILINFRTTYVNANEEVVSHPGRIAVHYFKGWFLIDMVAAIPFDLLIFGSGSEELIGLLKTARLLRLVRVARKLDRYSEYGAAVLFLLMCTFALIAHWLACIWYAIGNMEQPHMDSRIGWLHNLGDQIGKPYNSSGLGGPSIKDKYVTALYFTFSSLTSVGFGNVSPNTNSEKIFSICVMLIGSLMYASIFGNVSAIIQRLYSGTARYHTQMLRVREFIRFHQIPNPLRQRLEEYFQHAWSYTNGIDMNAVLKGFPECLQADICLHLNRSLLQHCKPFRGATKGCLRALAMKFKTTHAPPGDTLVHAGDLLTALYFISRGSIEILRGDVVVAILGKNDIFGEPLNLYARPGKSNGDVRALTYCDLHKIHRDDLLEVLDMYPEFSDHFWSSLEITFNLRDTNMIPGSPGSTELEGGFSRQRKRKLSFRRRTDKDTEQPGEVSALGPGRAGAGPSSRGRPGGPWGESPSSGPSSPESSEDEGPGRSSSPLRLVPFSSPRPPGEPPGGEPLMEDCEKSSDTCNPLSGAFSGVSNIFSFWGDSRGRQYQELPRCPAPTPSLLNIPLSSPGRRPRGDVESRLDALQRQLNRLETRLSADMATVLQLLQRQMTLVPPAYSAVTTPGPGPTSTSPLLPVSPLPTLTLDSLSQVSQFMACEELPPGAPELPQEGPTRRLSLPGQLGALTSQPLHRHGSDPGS

BaF3 [20] = assay: Antiproliferative activity against mouse BAF3 cells harboring HER2-A775-G776 ins YVMA mutant after 72 hrs by celltiter-Glo luminescence assay; assay type: functional, cell-based; settings: BaF3, 72 h
BaF3 [21] = assay: In vivo inhibition of EGFR D770-N771 ins NPG mutant in BALB/c mouse implanted with mouse BaF3 cells assessed as reduction in EGFR phosphorylation at 10 to 20 mg/kg, po administered once daily for 13 to 14 days by Western blot analysis; assay type: functional, organism-based; settings: dose 10-20 mg/kg, time 13-14 day
[22] = Tmax in Sprague-Dawley rat at 10 mg/kg, po measured upto 8 hrs by LC-MS/MS analysis; assay type: ADME, organism-based; settings: in vivo
[23] = Cmax in Sprague-Dawley rat at 10 mg/kg, po measured upto 8 hrs by LC-MS/MS analysis; assay type: ADME, organism-based; parameters: dose 10 mg/kg, time < 8 hrs, route po; settings: in vivo
[24] = Half life in Sprague-Dawley rat at 10 mg/kg, po measured upto 8 hrs by LC-MS/MS analysis; assay type: ADME, organism-based; settings: in vivo
[25] = Cmax in Sprague-Dawley rat at 10 mg/kg, iv measured upto 8 hrs by LC-MS/MS analysis; assay type: ADME, organism-based; parameters: dose 10 mg/kg, time < 8 hrs, route iv; settings: in vivo
BaF3 [26] = assay: Inhibition of EGFR D770-N771 ins NPG mutant in mouse BaF3 cells assessed as reduction in EGFR phosphorylation at less than 1 nM incubated for 24 hrs by Western blot analysis; assay type: cell-based

inhibition [1]: > 20% | pIC50 [2]: 8.85 | inhibition [4]: > 20% | inhibition [5]: > 20% | MRT [7]: 1.89 h | pIC50 [9]: 8.97 | Tmax [10]: 4.98 min | pIC50 (BaF3 [11]): 9.10 | half-life [14]: 0.89 h | AUC(0-t) at 8 h [15]: 9500 ng·h/mL | inhibition [16]: > 20% | pIC50 (BaF3 [17]): 9.54 | pIC50 (BaF3 [20]): 9.02 | Tmax [22]: 1.33 h | Cmax [23]: 1690 ng/mL | half-life [24]: 6.93 h | Cmax [25]: 8270 ng/mL
SMILES: C=CC(=O)N1CCC(Oc2cc3c(Nc4cccc(Cl)c4F)ncnc3cc2O[C@H]2CCOC2)CC1
inhibition (BaF3 [3]): Active | inhibition (BaF3 [6]): Dose-Dependent Effect | Activity [8]: Non-Toxic | inhibition in vivo at 20 mg/kg (BaF3 [12]): 90% | inhibition (BaF3 [13]): Dose-Dependent Effect | inhibition (BaF3 [18]): Active | pIC50 [19]: < 4.82 | inhibition (BaF3 [21]): Active | inhibition (BaF3 [26]): Active
